Consider five compounds from ChEMBL document CHEMBL1201862, “PubChem BioAssay data set” (2004).

Test systems include RPMI-8226; SK-MEL-2; U-251; SNB-75; K562; SW-620; EKVX; MOLT-4; SF-539; OVCAR-3; NCI-H226; UACC-257; SNB-19; HOP-62; OVCAR-5.
Common to all, as to experiment: growth of human tumour cells (NCI), 48 h

SMILES strings stand for the structures.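 Briefly, cells in 96-well plates were exposed to five compound concentrations for 48 h, and endpoints were estimated by linear interpolation. At the GI50, growth is halved.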 The source made the active and inactive calls. No stated cut-off is given here; in the data, active = GI50 up to about 1.1 µM and inactive = higher.

On to `COc1cc2c(cc1OC)C(=O)C(C1=C(SC(=N)N)C(=O)c3cc(OC)c(OC)cc31)C2` (stereo not given), for which the GI50 in the assay with RPMI-8226, in the assay on SK-MEL-2, with U-251, with SNB-75, with K562 and with SW-620 was > 100 µM (inactive) each time. The GI50 in the assay on EKVX, with MOLT-4, with SF-539, in the assay with OVCAR-3, in the assay on NCI-H226 and with UACC-257 was > 100 µM (inactive) each time. The figures for the GI50 in the assay with SNB-19, with HOP-62 and in the assay with OVCAR-5 were > 100 µM (inactive), 71.4 µM (inactive) and > 100 µM (inactive), respectively.
For the compound `CC1OC(OC2CCCc3c(O)c4c(c(O)c32)C(=O)c2ccccc2C4=O)CC(N)C1O` (stereo not given), the GI50 in the assay on RPMI-8226 is 1.58 µM (inactive); in the assay on SK-MEL-2, 1.75 µM (inactive); in the assay with U-251 it was 1.86 µM (inactive); in the assay on SNB-75, 1.35 µM (inactive); in the assay on K562 it was 1.01 µM (active); in the assay on SW-620 it was 1.33 µM (inactive). Further, the GI50 in the assay with EKVX was 1.71 µM (inactive); in the assay with MOLT-4, 0.652 µM (active); with SF-539 it was 1.56 µM (inactive); in the assay on OVCAR-3 it was 1.34 µM (inactive); in the assay with NCI-H226 it was 1.69 µM (inactive); in the assay with UACC-257 it was 1.62 µM (inactive). Further, the values for the GI50 in the assay with SNB-19, in the assay with HOP-62 and in the assay on OVCAR-5 were 1.64 µM (inactive), 1.57 µM (inactive) and 1.91 µM (inactive), respectively.
`COc1cc(NCC(C#N)C#N)ccc1/N=N/c1ccc([N+](=O)[O-])cc1`: the GI50 was 49.1 µM (inactive) in the assay on RPMI-8226; > 100 µM (inactive) with SK-MEL-2; > 100 µM (inactive) in the assay on U-251; 30.7 µM (inactive) in the assay on SNB-75; 91.2 µM (inactive) in the assay on K562; > 100 µM (inactive) with SW-620. Besides, the GI50 with EKVX was > 100 µM (inactive); in the assay with MOLT-4 it was 58.3 µM (inactive); in the assay on SF-539 it was > 100 µM (inactive); in the assay on OVCAR-3, 64.3 µM (inactive); in the assay with NCI-H226, > 100 µM (inactive); in the assay with UACC-257 it was > 100 µM (inactive). Moreover, the GI50 was 65.5 µM (inactive) in the assay with SNB-19, > 100 µM (inactive) with HOP-62 and > 100 µM (inactive) in the assay on OVCAR-5.
For the compound `COc1ccc2cc3[n+](cc2c1O)CCc1cc2c(cc1-3)OCO2` [BERBERRUBINE CHLORIDE], the GI50 in the assay on RPMI-8226 was > 100 µM (inactive); in the assay on SK-MEL-2 it was > 100 µM (inactive); in the assay with U-251, > 100 µM (inactive); in the assay on SNB-75, > 100 µM (inactive); in the assay on K562 it was > 100 µM (inactive); in the assay on SW-620, 92.9 µM (inactive). For the same compound, the GI50 is > 100 µM (inactive) in the assay on EKVX; 52.8 µM (inactive) in the assay on MOLT-4; > 100 µM (inactive) with SF-539; > 100 µM (inactive) with OVCAR-3; > 100 µM (inactive) in the assay on NCI-H226; > 100 µM (inactive) in the assay on UACC-257. For the same compound, the GI50 with SNB-19, with HOP-62 and in the assay with OVCAR-5 was > 100 µM (inactive) each time.
Regarding `O=C1O[B-](c2ccccc2)(c2ccccc2)[NH2+]C1CS` (stereo not given), the GI50 in the assay on RPMI-8226 is 20.2 µM (inactive); in the assay on SK-MEL-2 it was 83.8 µM (inactive); in the assay with U-251 it was 63.5 µM (inactive); in the assay on SNB-75, 34.8 µM (inactive); in the assay on K562, 23.9 µM (inactive); in the assay with SW-620, 24.5 µM (inactive). Also, the GI50 in the assay on EKVX is > 100 µM (inactive); with MOLT-4, 25.4 µM (inactive); in the assay with SF-539, 57.7 µM (inactive); in the assay on OVCAR-3 it was 38.8 µM (inactive); in the assay with NCI-H226 it was 68.4 µM (inactive); in the assay on UACC-257 it was 66.1 µM (inactive). The GI50 in the assay with SNB-19, in the assay on HOP-62 and in the assay with OVCAR-5 was > 100 µM (inactive) each time.
